From US11254686B1 (Corvus Pharmaceuticals, Inc., priority 2017, dated 2022)

Assays:
adenosine A2A receptor = adenosine A2A receptor (Homo sapiens (Human), UniProt P29274); assay: Adenosine receptor activity assay (Table 1), A2A activity; assay type: biochemical; conditions: read-out: Ave A2A cAMP IC50
adenosine A2B receptor = adenosine A2B receptor (Homo sapiens (Human), UniProt P29275); assay: Adenosine receptor activity assay (Table 1), A2B activity; assay type: biochemical; conditions: for Ratio: A2A activity to A2B activity (A2A/A2B); for IC50: read-out: Ave A2B cAMP IC50
adenosine A2B receptor, sequence (P29275 whole entry): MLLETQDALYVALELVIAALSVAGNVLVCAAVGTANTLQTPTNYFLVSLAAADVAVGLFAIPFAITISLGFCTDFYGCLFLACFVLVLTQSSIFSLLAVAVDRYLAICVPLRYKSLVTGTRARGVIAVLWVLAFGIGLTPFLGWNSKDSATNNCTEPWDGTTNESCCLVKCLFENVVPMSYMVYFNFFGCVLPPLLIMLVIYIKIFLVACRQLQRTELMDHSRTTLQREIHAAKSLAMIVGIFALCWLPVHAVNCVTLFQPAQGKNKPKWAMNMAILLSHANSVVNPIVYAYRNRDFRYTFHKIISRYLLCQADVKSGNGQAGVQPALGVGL

adenosine A2A receptor, sequence (P29274 whole entry): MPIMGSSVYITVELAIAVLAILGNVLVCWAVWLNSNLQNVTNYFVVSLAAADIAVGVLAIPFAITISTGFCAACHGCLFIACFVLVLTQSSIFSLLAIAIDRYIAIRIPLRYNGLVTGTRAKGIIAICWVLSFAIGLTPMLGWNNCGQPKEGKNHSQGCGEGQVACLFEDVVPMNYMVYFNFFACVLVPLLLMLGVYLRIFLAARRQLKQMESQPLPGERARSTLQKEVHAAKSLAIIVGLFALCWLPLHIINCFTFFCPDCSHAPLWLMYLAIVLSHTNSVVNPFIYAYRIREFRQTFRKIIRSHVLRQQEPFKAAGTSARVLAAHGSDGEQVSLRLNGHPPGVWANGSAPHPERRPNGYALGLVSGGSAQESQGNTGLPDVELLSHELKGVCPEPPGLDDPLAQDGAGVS

SMILES | IC50 (adenosine A2A receptor) | Ratio (adenosine A2B receptor) | IC50 (adenosine A2B receptor)
CC(=O)N[C@@H]1CCN(C(=O)c2nc(N[C@@H](C)c3cccnc3)nc3ccsc23)C1 [Example Z316, N—((R)-1-(2-(((S)-1-(Pyridin-3-yl)ethyl)amino)thieno[3,2-d]pyrimidine-4-carbonyl)pyrrolidin-3-yl)acetamide] | > 500 nM | 2.06 | > 500 nM
CC(=O)N[C@@H]1CCN(C(=O)c2nc(N[C@@H](C)c3ccccn3)nc3ccsc23)C1 [Example Z317, N—((R)-1-(2-(((S)-1-(Pyridin-2-yl)ethyl)amino)thieno[3,2-d]pyrimidine-4-carbonyl)pyrrolidin-3-yl)acetamide] | > 500 nM | 6.69 | > 500 nM
CC(=O)N[C@@H]1CCN(C(=O)c2nc(NCc3cncc(F)c3)nc3ccsc23)C1 [Example Z318, (R)—N-(1-(2-(((5-Fluoropyridin-3-yl)methyl)amino)thieno[3,2-d]pyrimidine-4-carbonyl)pyrrolidin-3-yl)acetamide] | > 500 nM | 17.41 | > 500 nM
CC(=O)N[C@@H]1CCN(C(=O)c2nc(N[C@@H](C)c3cncc(F)c3)nc3ccsc23)C1 [Example Z319, N—((R)-1-(2-(((S)-1-(5-Fluoropyridin-3-yl)ethyl)amino)thieno[3,2-d]pyrimidine-4-carbonyl)pyrrolidin-3-yl)acetamide] | > 500 nM | 22.72 | 50 to 100 nM
CC(=O)N[C@H]1CCN(C(=O)c2nc(N[C@@H](C)c3cccnc3)nc3ccsc23)C1 [Example Z322, N—((S)-1-(2-(((S)-1-(Pyridin-3-yl)ethyl)amino)thieno[3,2-d]pyrimidine-4-carbonyl)pyrrolidin-3-yl)acetamide] | > 500 nM | 6.33 | 100 to 500 nM
COC[C@H](Nc1nc(C(=O)NC[C@H](C)O)c2sccc2n1)c1cccnc1 [Example Z323, N—((S)-2-Hydroxypropyl)-2-(((R)-2-methoxy-1-(pyridin-3-yl)ethyl)amino)thieno[3,2-d]pyrimidine-4-carboxamide] | > 500 nM | 3.30 | > 500 nM
CC(=O)N[C@H]1CCN(C(=O)c2nc(N[C@@H](C)c3ccccn3)nc3ccsc23)C1 [Example Z324, N—((S)-1-(2-(((S)-1-(Pyridin-2-yl)ethyl)amino)thieno[3,2-d]pyrimidine-4-carbonyl)pyrrolidin-3-yl)acetamide] | > 500 nM | 28.39 | 10 to 50 nM
COC[C@H](Nc1nc(C(=O)NC[C@@H](C)O)c2sccc2n1)c1cccnc1 [Example Z325, N—((R)-2-Hydroxypropyl)-2-(((R)-2-methoxy-1-(pyridin-3-yl)ethyl)amino)thieno[3,2-d]pyrimidine-4-carboxamide] | > 500 nM | 1.87 | > 500 nM
CC(=O)N[C@H]1CCN(C(=O)c2nc(NCc3cncc(F)c3)nc3ccsc23)C1 [Example Z330, (S)—N-(1-(2-(((5-Fluoropyridin-3-yl)methyl)amino)thieno[3,2-d]pyrimidine-4-carbonyl)pyrrolidin-3-yl)acetamide] | > 500 nM | 196.86 | < 10 nM
C[C@H](NC(=O)c1nc(N[C@@H](C)c2ccncc2)nc2ccsc12)c1ccncc1 [Example Z338, N—((S)-1-(Pyridin-4-yl)ethyl)-2-(((S)-1-(pyridin-4-yl)ethyl)amino)thieno[3,2-d]pyrimidine-4-carboxamide] | > 500 nM | 1.50 | 100 to 500 nM
C[C@H](Nc1nc(C(=O)N2CC[C@@H](O)C2)c2sc(C(F)(F)F)cc2n1)c1ccccn1 [Example Z349, ((R)-3-Hydroxypyrrolidin-1-yl)(2-(((S)-1-(pyridin-2-yl)ethyl)amino)-6-(trifluoromethyl)thieno[3,2-d]pyrimidin-4-yl)methanone] | > 500 nM | 46.63 | 10 to 50 nM

The next lines start with the values.

IC50 (adenosine A2A receptor) | Ratio (adenosine A2B receptor) | IC50 (adenosine A2B receptor) | SMILES
50 to 100 nM | 0.46 | 100 to 500 nM | C[C@H](Nc1nc(C(=O)N2CC[C@H](NC(=O)OC(C)(C)C)C2)c2sccc2n1)c1cccnc1 [Example Z314, tert-Butyl ((S)-1-(2-(((S)-1-(pyridin-3-yl)ethyl)amino)thieno[3,2-d]pyrimidine-4-carbonyl)pyrrolidin-3-yl)carbamate]
50 to 100 nM | 0.67 | 50 to 100 nM | C[C@H](Nc1nc(C(=O)N2CC[C@H](NC(=O)OC(C)(C)C)C2)c2sccc2n1)c1ccccn1 [Example Z315, tert-Butyl ((S)-1-(2-(((S)-1-(pyridin-2-yl)ethyl)amino)thieno[3,2-d]pyrimidine-4-carbonyl)pyrrolidin-3-yl)carbamate]
100 to 500 nM | 3.92 | 50 to 100 nM | COC[C@@H](Nc1nc(C(=O)NC[C@H](C)O)c2sccc2n1)c1cccnc1 [Example Z320, N—((S)-2-Hydroxypropyl)-2-(((S)-2-methoxy-1-(pyridin-3-yl)ethyl)amino)thieno[3,2-d]pyrimidine-4-carboxamide]
100 to 500 nM | 3.66 | 50 to 100 nM | COC[C@@H](Nc1nc(C(=O)NC[C@@H](C)O)c2sccc2n1)c1cccnc1 [Example Z321, N—((R)-2-Hydroxypropyl)-2-(((S)-2-methoxy-1-(pyridin-3-yl)ethyl)amino)thieno[3,2-d]pyrimidine-4-carboxamide]
100 to 500 nM | 2.11 | 100 to 500 nM | C[C@H](Nc1nc(C(=O)NCCC2CCN(C(=O)OC(C)(C)C)CC2)c2sccc2n1)c1ccccn1 [Example Z342, tert-Butyl (S)-4-(2-(2-((1-(Pyridin-2-yl)ethyl)amino)thieno[3,2-d]pyrimidine-4-carboxamido)ethyl)piperidine-1-carboxylate]
100 to 500 nM |  | 50 to 100 nM | C[C@H](Nc1nc(C(=O)NCCC2CCN(C(=O)OC(C)(C)C)CC2)c2sccc2n1)c1cncc(F)c1 [Example Z343, tert-Butyl (S)-4-(2-(2-((1-(5-Fluoropyridin-3-yl)ethyl)amino)thieno[3,2-d]pyrimidine-4-carboxamido)ethyl)piperidine-1-carboxylate]
100 to 500 nM | 8.03 | 10 to 50 nM | C[C@H](Nc1nc(C(=O)N2CCCC2)c2sccc2n1)c1ccncc1 [Example Z344, (S)-(2-((1-(Pyridin-4-yl)ethyl)amino)thieno[3,2-d]pyrimidin-4-yl)(pyrrolidin-1-yl)methanone]
100 to 500 nM | 1.41 | 50 to 100 nM | COc1ccc(CNC(=O)c2nc(N[C@@H](C)c3ccncc3)nc3ccsc23)cn1 [Example Z345, (S)—N-((6-Methoxypyridin-3-yl)methyl)-2-((1-(pyridin-4-yl)ethyl)amino)thieno[3,2-d]pyrimidine-4-carboxamide]
100 to 500 nM | 4.80 | 10 to 50 nM | CO[C@H]1CCN(C(=O)c2nc(N[C@@H](C)c3cccnc3)nc3cc(C)sc23)C1 [Example Z350, ((S)-3-Methoxypyrrolidin-1-yl)(6-methyl-2-(((S)-1-(pyridin-3-yl)ethyl)amino)thieno[3,2-d]pyrimidin-4-yl)methanone]
50 to 100 nM | 10.17 | < 10 nM | CO[C@@H]1CCN(C(=O)c2nc(N[C@@H](C)c3cccnc3)nc3cc(C)sc23)C1 [Example Z351, ((R)-3-Methoxypyrrolidin-1-yl)(6-methyl-2-(((S)-1-(pyridin-3-yl)ethyl)amino)thieno[3,2-d]pyrimidin-4-yl)methanone]
